Data: ChEMBL document CHEMBL1201862, “PubChem BioAssay data set” (2004)
Activity calls are given as the source filed them. Rule as the data show it: actives have a measured IC50 and inactives only a lower limit.

Columns and labels:
Format in all cases: functional
[1] = target: T1, Sentrin-specific protease 6 (Homo sapiens, UniProt Q9GZR1);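 also: Luminescence-based dose-response confirmatory assay of SENP6 inhibition, following up an ultra-high-throughput screen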
T1 sequence (Q9GZR1 whole entry): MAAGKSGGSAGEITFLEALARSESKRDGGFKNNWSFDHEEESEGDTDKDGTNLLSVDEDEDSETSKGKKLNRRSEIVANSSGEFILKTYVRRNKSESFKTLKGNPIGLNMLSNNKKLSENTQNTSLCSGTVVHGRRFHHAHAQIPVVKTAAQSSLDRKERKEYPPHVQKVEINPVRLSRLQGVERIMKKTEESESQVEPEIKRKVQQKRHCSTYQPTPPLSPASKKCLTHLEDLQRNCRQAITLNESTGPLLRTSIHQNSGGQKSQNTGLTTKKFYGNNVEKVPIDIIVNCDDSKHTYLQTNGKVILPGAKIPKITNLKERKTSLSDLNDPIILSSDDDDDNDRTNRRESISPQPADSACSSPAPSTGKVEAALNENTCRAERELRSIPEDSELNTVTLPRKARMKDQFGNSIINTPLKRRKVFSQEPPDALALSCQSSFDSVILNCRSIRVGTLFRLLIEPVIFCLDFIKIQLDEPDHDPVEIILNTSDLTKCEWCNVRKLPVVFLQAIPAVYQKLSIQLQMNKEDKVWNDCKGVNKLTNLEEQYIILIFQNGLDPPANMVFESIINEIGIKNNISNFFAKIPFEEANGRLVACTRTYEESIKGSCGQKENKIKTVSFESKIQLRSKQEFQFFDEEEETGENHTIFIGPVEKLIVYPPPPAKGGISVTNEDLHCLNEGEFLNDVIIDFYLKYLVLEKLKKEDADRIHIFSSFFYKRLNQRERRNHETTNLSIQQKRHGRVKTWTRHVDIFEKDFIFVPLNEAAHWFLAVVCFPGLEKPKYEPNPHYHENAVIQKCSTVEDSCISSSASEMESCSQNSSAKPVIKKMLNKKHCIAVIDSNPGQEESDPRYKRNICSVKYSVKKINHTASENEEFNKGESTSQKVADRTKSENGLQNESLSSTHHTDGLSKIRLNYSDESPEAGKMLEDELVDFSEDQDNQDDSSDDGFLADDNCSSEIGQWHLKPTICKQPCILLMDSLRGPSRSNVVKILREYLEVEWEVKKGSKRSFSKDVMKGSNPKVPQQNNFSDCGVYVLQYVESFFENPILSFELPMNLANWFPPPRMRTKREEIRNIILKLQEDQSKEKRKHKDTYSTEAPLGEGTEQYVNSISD

[2] = target: T2, Sentrin-specific protease 8 (Homo sapiens, UniProt Q96LD8);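 also: luminescence read-out of SENP8 inhibition, dose-response confirmation following an ultra-high-throughput screen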
T2 sequence (Q96LD8 whole entry): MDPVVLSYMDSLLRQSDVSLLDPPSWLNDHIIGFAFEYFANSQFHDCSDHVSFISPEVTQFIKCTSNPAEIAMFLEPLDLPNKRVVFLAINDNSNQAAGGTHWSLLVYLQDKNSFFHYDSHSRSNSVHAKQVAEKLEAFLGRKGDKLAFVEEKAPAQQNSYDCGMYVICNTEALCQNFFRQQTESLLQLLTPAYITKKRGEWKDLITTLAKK

[3] = target: T3, Apoptotic protease-activating factor 1 (Homo sapiens, UniProt O14727)
T3 sequence (O14727 whole entry): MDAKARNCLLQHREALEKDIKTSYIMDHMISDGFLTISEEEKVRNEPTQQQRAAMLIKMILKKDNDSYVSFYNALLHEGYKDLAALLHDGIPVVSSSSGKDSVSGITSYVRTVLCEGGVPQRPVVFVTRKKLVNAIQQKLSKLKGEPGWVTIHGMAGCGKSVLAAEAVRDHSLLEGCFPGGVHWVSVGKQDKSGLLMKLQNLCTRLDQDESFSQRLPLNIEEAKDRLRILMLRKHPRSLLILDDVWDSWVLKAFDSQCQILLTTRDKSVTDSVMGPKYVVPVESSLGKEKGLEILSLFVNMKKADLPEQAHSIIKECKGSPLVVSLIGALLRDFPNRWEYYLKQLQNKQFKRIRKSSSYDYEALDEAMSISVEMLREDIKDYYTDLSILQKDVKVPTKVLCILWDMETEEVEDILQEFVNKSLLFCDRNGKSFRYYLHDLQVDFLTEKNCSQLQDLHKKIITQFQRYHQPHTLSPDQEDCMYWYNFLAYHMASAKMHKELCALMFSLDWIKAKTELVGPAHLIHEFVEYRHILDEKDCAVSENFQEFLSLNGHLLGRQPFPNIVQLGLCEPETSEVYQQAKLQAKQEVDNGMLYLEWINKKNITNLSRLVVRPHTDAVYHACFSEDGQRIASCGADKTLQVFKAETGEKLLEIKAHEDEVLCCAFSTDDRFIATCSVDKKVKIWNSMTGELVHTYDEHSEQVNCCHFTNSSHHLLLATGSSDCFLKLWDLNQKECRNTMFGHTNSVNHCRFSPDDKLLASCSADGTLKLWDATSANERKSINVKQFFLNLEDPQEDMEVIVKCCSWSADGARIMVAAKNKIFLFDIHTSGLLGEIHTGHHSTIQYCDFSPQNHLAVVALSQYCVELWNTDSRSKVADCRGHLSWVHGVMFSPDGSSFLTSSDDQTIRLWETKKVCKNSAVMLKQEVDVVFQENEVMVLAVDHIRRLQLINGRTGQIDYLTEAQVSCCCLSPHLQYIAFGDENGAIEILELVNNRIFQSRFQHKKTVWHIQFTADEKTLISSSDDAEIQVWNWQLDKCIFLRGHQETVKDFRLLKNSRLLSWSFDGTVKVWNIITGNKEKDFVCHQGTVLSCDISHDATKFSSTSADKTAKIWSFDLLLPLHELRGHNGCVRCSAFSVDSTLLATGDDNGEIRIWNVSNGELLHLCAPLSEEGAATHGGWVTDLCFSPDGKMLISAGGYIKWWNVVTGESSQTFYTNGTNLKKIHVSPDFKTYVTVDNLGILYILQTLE

For `O=C1N=C(NS(=O)(=O)Cc2ccccc2)S/C1=C1\C(=O)Nc2ccccc21`, the IC50 [1] was 15.7 µM (active) and the IC50 [2] was 24.5 µM (active).
In the case of `O=C1C=C(N2CCCCC2)c2ccccc2C1=O`, the IC50 [3] is reported as 2.12 µM (active).
For `Clc1ccc2nc(-c3ccc(Br)s3)cn2c1`, the IC50 [1] was 12.3 µM (active) and the IC50 [2] was 16.5 µM (active).
`O=C(CCc1ccccc1)NNc1cc(N2CCCCC2)nc(N2CCCCC2)n1` was tested, and the IC50 [3] was 3.62 µM (active).
`Oc1ccc(N=Nc2c(O)ccc3ccccc23)cc1` was tested, and the IC50 [1] was 13 µM (active) and the IC50 [2] was 8.8 µM (active).
